The record followed here is PubChem BioAssay AID1918935 (Molecular Pharmacology Branch, DTP, NCI, 2023).

“And” between values parts separate entries of the source, which are not always exact repeats. Equal entries are not always repeated. A value given as a limit tells only on which side of the number the result lay.

For the experiment, the system named is 324938-238-R-J1-PDC complex spheroid viability. As to the kind of experiment: Anticancer human tumor 324938-238-R-J1-PDC patient-derived bladder carcinoma cell line growth inhibition. As to conditions: for viability, T/C: stronger effect = lower value. The gist of the method: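 Drug combinations with the LSD1 inhibitor iadademstat tested on tumor cells co-cultured as spheroids with endothelial cells and mesenchymal stem cells. Concentrations descended in half-log increments from clinical Cmax or 10 microM.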

Where [1] appears, read: curve of first compound, second compound 0.1 µM.
The mark [2] stands for this setting: curve of first compound, second compound 0.316 µM.
[3] abbreviates: curve of first compound, second compound 1 µM.
Where [4] appears, read: curve of first compound, second compound 3.16 µM.
Setting [5] is: curve of first compound, second compound 10 µM.
[6] abbreviates: second compound 0.1 µM, first compound 0.0316 µM.
Where [7] appears, read: second compound 0.1 µM, first compound 0.1 µM.
[8] abbreviates: second compound 0.1 µM, first compound 0.316 µM.
Setting [9] is: second compound 0.1 µM, first compound 1 µM.
[10] abbreviates: second compound 0.316 µM, first compound 0.0316 µM.
Where [11] appears, read: second compound 0.316 µM, first compound 0.1 µM.
[12] abbreviates: second compound 0.316 µM, first compound 0.316 µM.
The mark [13] stands for this setting: second compound 0.316 µM, first compound 1 µM.
Where [14] appears, read: second compound 1 µM, first compound 0.0316 µM.
Where [15] appears, read: second compound 1 µM, first compound 0.1 µM.
Where [16] appears, read: second compound 1 µM, first compound 0.316 µM.
The mark [17] stands for this setting: second compound 1 µM, first compound 1 µM.
Where [18] appears, read: second compound 3.16 µM, first compound 0.0316 µM.
Where [19] appears, read: second compound 3.16 µM, first compound 0.1 µM.
[20] abbreviates: second compound 3.16 µM, first compound 0.316 µM.
[21] abbreviates: second compound 3.16 µM, first compound 1 µM.
[22] abbreviates: second compound 10 µM, first compound 0.0316 µM.
Where [23] appears, read: second compound 10 µM, first compound 0.1 µM.
Setting [24] is: second compound 10 µM, first compound 0.316 µM.
[25] abbreviates: second compound 10 µM, first compound 1 µM.
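Also: spheroids also contain HUVEC and human MSCs and agents combined with iadademstat; spheroids exposed to agents for 7 days before readout.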

On to `Nc1ncn(C2CC(O)C(CO)O2)c(=O)n1` (stereo not given) + NC1CC1c1ccc(-c2cccc(O)c2)cc1, for which the IC50 worked out at 311 nM under setting [1]; 143 nM under setting [2]; 237 nM under setting [3]; 227 nM under setting [4]; 258 nM under setting [5]. Further, the viability, T/C was 95.1% (second compound 0.1 µM, first compound 0.00316 µM); 90.3% (second compound 0.1 µM, first compound 0.01 µM); 79.2% under setting [6]; 62.8% under setting [7]; 49.7% under setting [8]; 43.9% under setting [9]. The viability, T/C is, setting by setting: (second compound 0.316 µM, first compound 0.00316 µM) 73.6%; (second compound 0.316 µM, first compound 0.01 µM) 74.5%; under setting [10], 67.6%; under setting [11], 52.4%; under setting [12], 44.9%; under setting [13], 41%. For the same compound, the viability, T/C reads like this: (second compound 1 µM, first compound 0.00316 µM) 70.4%; (second compound 1 µM, first compound 0.01 µM) 70.9%; under setting [14], 62.8%; under setting [15], 57%; under setting [16], 47.9%; under setting [17], 41.2%. In addition, the viability, T/C is, setting by setting: (second compound 3.16 µM, first compound 0.00316 µM) 74.7%; (second compound 3.16 µM, first compound 0.01 µM) 57.7%; under setting [18], 68.5%; under setting [19], 56.3%; under setting [20], 45.4%; under setting [21], 39.3%. Also, the viability, T/C is, setting by setting: (second compound 10 µM, first compound 0.00316 µM) 63.3%; (second compound 10 µM, first compound 0.01 µM) 73.7%; under setting [22], 69.9%; under setting [23], 57.6%; under setting [24], 49.7%; under setting [25], 41.4%.

Regarding `CC(C)CC(NC(=O)C(Cc1ccccc1)NC(=O)c1cnccn1)B(O)O` (stereo not given), the viability, T/C was 95.8% and 79.7% (compound 0.000316 µM); 21.5% and 7.74% (compound 0.001 µM); 0.55% and 0.19% (compound 0.00316 µM); 0.21% and 1.23% (compound 0.01 µM); 0.46% and 0.17% (compound 0.0316 µM); 0.24% and 0.28% (compound 0.1 µM). Further, the IC50 (curve of compound) was 0.643 nM and 0.508 nM.

Regarding `CCN(c1cc(-c2ccc(CN3CCOCC3)cc2)cc(C(=O)NCc2c(C)cc(C)[nH]c2=O)c1C)C1CCOCC1`, the viability, T/C (compound 0.00949 µM) is 100% and 111%; the viability, T/C (compound 0.03 µM) is 105%; the viability, T/C (compound 0.0949 µM) was 96.9% and 101%; the viability, T/C (compound 0.3 µM) was 96.7% and 97.5%; the viability, T/C (compound 0.949 µM) is 94.5% and 98.9%; the viability, T/C (compound 3 µM) is 91.2% and 99%. Besides, the half-maximal inhibitory concentration (IC50) (curve of compound) was more than 3000 nM.

On to `COc1cc(C2c3cc4c(cc3C(OC3OC5COC(C)OC5C(O)C3O)C3COC(=O)C23)OCO4)cc(OC)c1O` (stereo not given) + NC1CC1c1ccc(-c2cccc(O)c2)cc1, for which the IC50 is 61.7 nM under setting [1]; 60.3 nM under setting [2]; 45.8 nM under setting [3]; 46.5 nM under setting [4]; 38.2 nM under setting [5]. Further, the viability, T/C (second compound 0.1 µM, first compound 0.00949 µM) is 82.3%; the viability, T/C (second compound 0.1 µM, first compound 0.03 µM) was 74.6%; the viability, T/C (second compound 0.1 µM, first compound 0.0949 µM) was 35.1%; the viability, T/C (second compound 0.1 µM, first compound 0.3 µM) was 18.9%; the viability, T/C (second compound 0.1 µM, first compound 0.949 µM) is 20.9%; the viability, T/C (second compound 0.1 µM, first compound 3 µM) was 10.6%. The viability, T/C by setting is: (second compound 0.316 µM, first compound 0.00949 µM) 69.8%; (second compound 0.316 µM, first compound 0.03 µM) 67.1%; (second compound 0.316 µM, first compound 0.0949 µM) 38.4%; (second compound 0.316 µM, first compound 0.3 µM) 22.2%; (second compound 0.316 µM, first compound 0.949 µM) 17.6%; (second compound 0.316 µM, first compound 3 µM) 8.16%. Besides, the viability, T/C by setting is: (second compound 1 µM, first compound 0.00949 µM) 67.9%; (second compound 1 µM, first compound 0.03 µM) 60%; (second compound 1 µM, first compound 0.0949 µM) 34%; (second compound 1 µM, first compound 0.3 µM) 19.6%; (second compound 1 µM, first compound 0.949 µM) 19.2%; (second compound 1 µM, first compound 3 µM) 7.9%. In addition, the viability, T/C was 74% (second compound 3.16 µM, first compound 0.00949 µM); 59% (second compound 3.16 µM, first compound 0.03 µM); 35.6% (second compound 3.16 µM, first compound 0.0949 µM); 23.3% (second compound 3.16 µM, first compound 0.3 µM); 17.3% (second compound 3.16 µM, first compound 0.949 µM); 11.7% (second compound 3.16 µM, first compound 3 µM). For the same compound, the viability, T/C (second compound 10 µM, first compound 0.00949 µM) was 73.5%; the viability, T/C (second compound 10 µM, first compound 0.03 µM) is 54.8%; the viability, T/C (second compound 10 µM, first compound 0.0949 µM) is 34.3%; the viability, T/C (second compound 10 µM, first compound 0.3 µM) was 27.5%; the viability, T/C (second compound 10 µM, first compound 0.949 µM) is 16.8%; the viability, T/C (second compound 10 µM, first compound 3 µM) is 11.7%.

As to `COc1ccc([C@@H](O)c2cc(-c3ncnc4cc(N5CCOCC5)ccc34)c(F)cc2Cl)nn1` + NC1CC1c1ccc(-c2cccc(O)c2)cc1, the IC50 runs as follows: under setting [1], 1440 nM; under setting [2], 481 nM; under setting [3], 411 nM; under setting [4], 313 nM; under setting [5], 439 nM. The viability, T/C was 82.3% under setting [6]; 77.6% under setting [7]; 65.2% under setting [8]; 54% under setting [9]; 41.5% (second compound 0.1 µM, first compound 3.16 µM); 25.7% (second compound 0.1 µM, first compound 10 µM). Further, the viability, T/C is 71.3% under setting [10]; 61.8% under setting [11]; 52% under setting [12]; 45.7% under setting [13]; 34.9% (second compound 0.316 µM, first compound 3.16 µM); 25% (second compound 0.316 µM, first compound 10 µM). Further, the viability, T/C by setting is: under setting [14], 63.6%; under setting [15], 60.5%; under setting [16], 49.6%; under setting [17], 43.2%; (second compound 1 µM, first compound 3.16 µM) 37.5%; (second compound 1 µM, first compound 10 µM) 23.4%. Besides, the viability, T/C under setting [18] is 62.6%; the viability, T/C under setting [19] is 59.4%; the viability, T/C under setting [20] is 49.4%; the viability, T/C under setting [21] was 39.7%; the viability, T/C (second compound 3.16 µM, first compound 3.16 µM) was 35.3%; the viability, T/C (second compound 3.16 µM, first compound 10 µM) is 25.6%. Moreover, the viability, T/C is, setting by setting: under setting [22], 64.2%; under setting [23], 60.2%; under setting [24], 55.6%; under setting [25], 38.5%; (second compound 10 µM, first compound 3.16 µM) 32.7%; (second compound 10 µM, first compound 10 µM) 21.8%.

Turning to `NC1CCC(NC2CC2c2ccccc2)CC1` (stereo not given), the viability, T/C is 78.6% [middle of 25 runs] (compound 0.1 µM); 86.7% and 75.8% and 76.6% (compound 0.316 µM); 75.9% [middle of 25 runs] (compound 1 µM); 73.6% [middle of 24 runs] (compound 3.16 µM); 72.2% [middle of 23 runs] (compound 10 µM). Also, for the setting “compound alone, run of 11/29/2021”, the IC50 was more than 10000 nM.

The IC50 is the concentration at which inhibition is half-maximal. One may read the viability, T/C as the ratio of treated to control.
